Activity calls are given as the source filed them.
Key:
[1] = system: Oryza sativa; assay: Phytotoxicity against Oryza sativa cv. Koshihikari (rice) at 2000 g a.i/ha measured after 14 days; assay type: organism-based; details: in vivo, 336 h
[2] = system: Echinochloa oryzicola; assay: Pre-emergence herbicidal activity against Echinochloa oryzicola at 2000 g a.i/ha measured after 14 days; assay type: functional, organism-based
[3] = system: Eleocharis acicularis; assay: Post-emergence herbicidal activity against Eleocharis acicularis assessed as bleaching of stem/leaf parts; assay type: functional, organism-based; further: test concentration or dose not given here
[4] = system: Eleocharis acicularis; assay: Pre-emergence herbicidal activity against Eleocharis acicularis assessed as bleaching of stem/leaf parts; assay type: functional, organism-based
[5] = system: Ammannia multiflora; assay: Pre-emergence herbicidal activity against Ammannia multiflora assessed as bleaching of stem/leaf parts; assay type: functional, organism-based
[6] = system: Rotala indica; assay: Pre-emergence herbicidal activity against Rotala indica assessed as bleaching of stem/leaf parts; assay type: functional, organism-based
[7] = system: Elatine triandra; assay: Pre-emergence herbicidal activity against Elatine triandra assessed as bleaching of stem/leaf parts; assay type: functional, organism-based
[8] = system: Lindernia procumbens; assay: Pre-emergence herbicidal activity against Lindernia procumbens assessed as bleaching of stem/leaf parts; assay type: functional, organism-based
[9] = system: Schoenoplectiella juncoides; assay: Pre-emergence herbicidal activity against Schoenoplectiella juncoides assessed as bleaching of stem/leaf parts; assay type: functional, organism-based
[10] = system: Pontederia vaginalis; assay: Pre-emergence herbicidal activity against Monochoria vaginalis assessed as bleaching of stem/leaf parts; assay type: functional, organism-based
[11] = system: Cyperus difformis; assay: Pre-emergence herbicidal activity against Cyperus difformis assessed as bleaching of stem/leaf parts; assay type: functional, organism-based
[12] = system: Echinochloa oryzicola; assay: Pre-emergence herbicidal activity against Echinochloa oryzicola assessed as bleaching of stem/leaf parts; assay type: functional, organism-based
[13] = system: Ammannia multiflora; assay: Post-emergence herbicidal activity against Ammannia multiflora assessed as bleaching of stem/leaf parts; assay type: functional, organism-based; further: test concentration or dose not given here
[14] = system: Elatine triandra; assay: Post-emergence herbicidal activity against Elatine triandra assessed as bleaching of stem/leaf parts; assay type: functional, organism-based; further: test concentration or dose not given here
[15] = system: Rotala indica; assay: Post-emergence herbicidal activity against Rotala indica assessed as bleaching of stem/leaf parts; assay type: functional, organism-based; further: test concentration or dose not given here
[16] = system: Schoenoplectiella juncoides; assay: Post-emergence herbicidal activity against Schoenoplectiella juncoides assessed as bleaching of stem/leaf parts; assay type: functional, organism-based; further: test concentration or dose not given here
[17] = system: Lindernia procumbens; assay: Post-emergence herbicidal activity against Lindernia procumbens assessed as bleaching of stem/leaf parts; assay type: functional, organism-based; further: test concentration or dose not given here
[18] = system: Pontederia vaginalis; assay: Post-emergence herbicidal activity against Monochoria vaginalis assessed as bleaching of stem/leaf parts; assay type: functional, organism-based; further: test concentration or dose not given here
[19] = system: Cyperus difformis; assay: Post-emergence herbicidal activity against Cyperus difformis assessed as bleaching of stem/leaf parts; assay type: functional, organism-based; further: test concentration or dose not given here
[20] = system: Echinochloa oryzicola; assay: Post-emergence herbicidal activity against Echinochloa oryzicola assessed as bleaching of stem/leaf parts; assay type: functional, organism-based; further: test concentration or dose not given here
[21] = system: Eleocharis acicularis; assay: Pre-emergence herbicidal activity against Eleocharis acicularis at 2000 g a.i/ha measured after 14 days; assay type: functional, organism-based
[22] = system: Schoenoplectiella juncoides; assay: Pre-emergence herbicidal activity against Schoenoplectiella juncoides at 2000 g a.i/ha measured after 14 days; assay type: functional, organism-based
[23] = system: Pontederia vaginalis; assay: Pre-emergence herbicidal activity against Monochoria vaginalis at 2000 g a.i/ha measured after 14 days; assay type: functional, organism-based
[24] = system: Ammannia multiflora; assay: Pre-emergence herbicidal activity against Ammannia multiflora at 2000 g a.i/ha measured after 14 days; assay type: functional, organism-based
[25] = system: Rotala indica; assay: Pre-emergence herbicidal activity against Rotala indica at 2000 g a.i/ha measured after 14 days; assay type: functional, organism-based
[26] = system: Elatine triandra; assay: Pre-emergence herbicidal activity against Elatine triandra at 2000 g a.i/ha measured after 14 days; assay type: functional, organism-based
[27] = system: Lindernia procumbens; assay: Pre-emergence herbicidal activity against Lindernia procumbens at 2000 g a.i/ha measured after 14 days; assay type: functional, organism-based
[28] = system: Cyperus difformis; assay: Pre-emergence herbicidal activity against Cyperus difformis at 2000 g a.i/ha measured after 14 days; assay type: functional, organism-based

Compound | Activity [1] | Activity [2] | Activity [3] | Activity [4] | Activity [5] | Activity [6] | Activity [7] | Activity [8] | Activity [9] | Activity [10] | Activity [11] | Activity [12] | Activity [13] | Activity [14] | Activity [15] | Activity [16] | Activity [17] | Activity [18] | Activity [19] | Activity [20] | other results
CCCN(CC)C(=O)c1cn(C)nc1OCc1cccc(Cl)c1 | Non-toxic | Active | Active | Active | Active | Active | Active | Active | Active | Active | Active | Active | Active | Active | Active | Active | Active | Active | Active | Active | Activity [21]: Active; Activity [22]: Active; Activity [23]: Active; Activity [24]: Active; Activity [25]: Active; Activity [26]: Active; Activity [27]: Active; Activity [28]: Active
CCCN(CC)C(=O)c1cn(C)nc1OC | Non-toxic | inactive | Active | Active | Active | Active | Active | Active | Active | Active | Active | Active | Active | Active | Active | Active | Active | Active | Active | Active | Activity [21]: inactive; Activity [22]: inactive; Activity [23]: inactive; Activity [24]: inactive; Activity [25]: inactive; Activity [26]: inactive; Activity [27]: inactive; Activity [28]: inactive
CCCN(CC)C(=O)c1cn(C)nc1OCc1ccc(SC)cc1 | Non-toxic | inactive | Active | Active | Active | Active | Active | Active | Active | Active | Active | Active | Active | Active | Active | Active | Active | Active | Active | Active | Activity [21]: inactive; Activity [22]: inactive; Activity [23]: inactive; Activity [24]: inactive; Activity [25]: inactive; Activity [26]: inactive; Activity [27]: inactive; Activity [28]: inactive
CCCN(CC)C(=O)c1cn(C)nc1OCc1ccccc1C(F)(F)F | Non-toxic | inactive | Active | Active | Active | Active | Active | Active | Active | Active | Active | Active | Active | Active | Active | Active | Active | Active | Active | Active | Activity [21]: inactive; Activity [22]: inactive; Activity [23]: inactive; Activity [24]: inactive; Activity [25]: inactive; Activity [26]: inactive; Activity [27]: inactive; Activity [28]: inactive
CCCN(CC)C(=O)c1cn(C)nc1OCc1cccc(C(F)(F)F)c1 | Toxic | Active | Active | Active | Active | Active | Active | Active | Active | Active | Active | Active | Active | Active | Active | Active | Active | Active | Active | Active | Activity [21]: Active; Activity [22]: Active; Activity [23]: Active; Activity [24]: inactive; Activity [25]: inactive; Activity [26]: inactive; Activity [27]: inactive; Activity [28]: Active
C#CCOc1nn(C)cc1C(=O)N(CC)CCC | Non-toxic | inactive | Active | Active | Active | Active | Active | Active | Active | Active | Active | Active | Active | Active | Active | Active | Active | Active | Active | Active | Activity [21]: inactive; Activity [22]: inactive; Activity [23]: inactive; Activity [24]: inactive; Activity [25]: inactive; Activity [26]: inactive; Activity [27]: inactive; Activity [28]: inactive
CCCN(CC)C(=O)c1cn(C)nc1OCc1cccc(C#N)c1 | Non-toxic | inactive | Active | Active | Active | Active | Active | Active | Active | Active | Active | Active | Active | Active | Active | Active | Active | Active | Active | Active | Activity [21]: inactive; Activity [22]: inactive; Activity [23]: inactive; Activity [24]: inactive; Activity [25]: inactive; Activity [26]: inactive; Activity [27]: inactive; Activity [28]: inactive
CCCN(CC)C(=O)c1cn(C)nc1OCc1cc(Br)cc(Br)c1 | Non-toxic | inactive | Active | Active | Active | Active | Active | Active | Active | Active | Active | Active | Active | Active | Active | Active | Active | Active | Active | Active | Activity [21]: inactive; Activity [22]: inactive; Activity [23]: inactive; Activity [24]: inactive; Activity [25]: inactive; Activity [26]: inactive; Activity [27]: inactive; Activity [28]: inactive
CCCN(CC)C(=O)c1cn(C)nc1OCc1cccc(C)c1 | Non-toxic | inactive | Active | Active | Active | Active | Active | Active | Active | Active | Active | Active | Active | Active | Active | Active | Active | Active | Active | Active | Activity [22]: Active; Activity [23]: Active; Activity [24]: Active; Activity [25]: Active; Activity [26]: Active; Activity [27]: Active; Activity [28]: Active
